{"source": "paper PMC11995402", "about": "(ACS infectious diseases, 2025)", "key": {"[1]": {"test_system": "CK2α/PI3Kγ", "conditions": "cited from earlier work"}, "[2]": {"test_system": "T. muris", "assay": "adult whipworm whole-worm motility inhibition assay", "assay_type": "cell-based, Trichuris muris", "conditions": "for worm motility inhibition (in words) / motility inhibition: adult T. muris; for worm motility inhibition (in words): 30 μM (Figure 1); for worm motility inhibition, SAR statement (in words): T. muris, 50 μM, 48 h (Figures 3-5); for motility inhibition: 30 μM"}, "[3]": {"test_system": "A. ceylanicum", "assay": "adult hookworm whole-worm motility inhibition assay", "assay_type": "cell-based, Ancylostoma ceylanicum", "conditions": "for worm motility inhibition, SAR statement (in words): A. ceylanicum, 30 μM, 48 h (Figures 3-5); for IC50: motility"}, "[4]": {"test_system": "HepG2 cells", "assay": "HepG2 MTT viability assay", "conditions": "for CC50: read-out: HEPG2 cells CC50 μM (95% CI) 24 h, MTT viability, 24 h"}, "[5]": {"test_system": "MDR1 (P-gp)", "assay": "in vitro", "conditions": "dog, MDCK-MDR1"}, "[6]": {"assay": "in vitro", "conditions": "dog"}, "[7]": {"test_system": "MDR1-MDCK II cells"}, "[8]": {"conditions": "read-out: A. ceylanicum IC50 μM (95% CI) 24 h, 24 h"}, "[9]": {"conditions": "read-out: A. ceylanicum IC50 μM (95% CI) 48 h, 48 h"}, "[10]": {"conditions": "read-out: T. muris IC50 μM (95% CI) 24 h, motility, 24 h"}, "[11]": {"conditions": "read-out: T. muris IC50 μM (95% CI) 48 h, motility, 48 h"}}, "note": "Entries after “also recorded” stand apart in the source; their conditions may differ. Where two headings read alike, the source gives them in different places."}
{"compound": "O=C1NC(=O)/C(=C/c2ccc(-c3ccc(F)cc3O)o2)S1", "note": "[AS-252424]", "values": [{"measurement": "selectivity for PI3Kγ over PI3Kα", "setting": "[1]", "value": 30, "unit": "fold"}, {"measurement": "IC50", "setting": "[1]; read-out: IC50 (dual inhibitor of CK2α/PI3Kγ)", "value": 0.03, "unit": "µM"}, {"measurement": "worm motility inhibition (in words)", "setting": "[2]", "value": "excellent worm motility inhibition"}]}
{"compound": "N[C@@H]1CCCN(c2c(/C=C3\\SC(=O)NC3=O)cccc2-c2ccccc2)C1", "note": "[AZD1208]", "values": [{"measurement": "worm motility inhibition (in words)", "setting": "[2]", "value": "inactive"}]}
{"compound": "O=C(O)c1ccc2c(c1)nc(Nc1cccc(Cl)c1)c1ccncc12", "note": "[CX-4945]", "values": [{"measurement": "worm motility inhibition (in words)", "setting": "[2]", "value": "did not show measurable inhibition of worm motility"}]}
{"compound": "CN1CCCN(C(=O)c2cccc(-c3ccc(C=C4C(=O)Nc5ccc(N)cc54)o3)c2)CC1", "note": "[Compound 7]", "values": [{"measurement": "worm motility inhibition, SAR statement (in words)", "setting": "[3]", "value": "not against A. ceylanicum; also recorded: inactive against both species"}, {"measurement": "worm motility inhibition, SAR statement (in words)", "setting": "[2]", "value": "complete loss of activity; also recorded: inactive against both species"}]}
{"compound": "CN1CCCN(C(=O)c2cccc(-c3ccc(C=C4C(=O)Nc5c(Cl)cccc54)o3)c2)CC1", "note": "[Compound 8]", "values": [{"measurement": "worm motility inhibition, SAR statement (in words)", "setting": "[3]", "value": "hookworm selective; also recorded: neither an increase nor decrease to activity"}, {"measurement": "IC50", "setting": "[3]; [8]", "value": 40, "unit": "µM"}, {"measurement": "IC50", "setting": "[3]; [9]", "value": 21, "unit": "µM"}, {"measurement": "CC50", "setting": "[4]", "value": 15.5, "unit": "µM"}, {"measurement": "fold increase in cytotoxicity (measured by CC50)", "setting": "[4]; relative to CX-6258", "value": 2.4, "unit": "fold"}, {"measurement": "worm motility inhibition, SAR statement (in words)", "setting": "[2]", "value": "neither an increase nor decrease to activity"}, {"measurement": "IC50", "setting": "[2]; [10]", "value": 42, "unit": "µM"}, {"measurement": "IC50", "setting": "[2]; [11]", "value": "> 90", "unit": "µM"}]}
{"compound": "Cc1ccc2c(c1)C(=Cc1ccc(-c3cccc(C(=O)N4CCCN(C)CC4)c3)o1)C(=O)N2", "note": "[Compound 10]", "values": [{"measurement": "worm motility inhibition, SAR statement (in words)", "setting": "[3]", "value": "inactivated the inhibition of both species"}, {"measurement": "worm motility inhibition, SAR statement (in words)", "setting": "[2]", "value": "inactivated the inhibition of both species"}]}
{"compound": "CN1CCCN(C(=O)c2cccc(-c3ccc(C=C4C(=O)Nc5ccccc54)o3)c2)CC1", "note": "[Compound 11]", "values": [{"measurement": "worm motility inhibition, SAR statement (in words)", "setting": "[3]", "value": "neither an increase nor decrease to activity"}, {"measurement": "IC50", "setting": "[3]; [8]", "value": 25.2, "unit": "µM"}, {"measurement": "IC50", "setting": "[3]; [9]", "value": 8.8, "unit": "µM"}, {"measurement": "CC50", "setting": "[4]", "value": 22.2, "unit": "µM"}, {"measurement": "worm motility inhibition, SAR statement (in words)", "setting": "[2]", "value": "neither an increase nor decrease to activity"}, {"measurement": "IC50", "setting": "[2]; [10]", "value": "> 90", "unit": "µM"}, {"measurement": "IC50", "setting": "[2]; [11]", "value": "> 90", "unit": "µM"}]}
{"compound": "C[C@H](NC(=O)c1c(N)nn2cccnc12)c1cc2cccc(C#Cc3cnn(C)c3)c2c(=O)n1-c1ccccc1", "note": "[IPI-549]", "values": [{"measurement": "worm motility inhibition (in words)", "setting": "[2]", "value": "did not show measurable inhibition of worm motility"}]}
{"compound": "CN1CCC(CNc2ccc3ncc(-c4cccc(OC(F)(F)F)c4)n3n2)CC1", "note": "[SGI-1776]", "values": [{"measurement": "worm motility inhibition (in words)", "setting": "[2]", "value": "excellent inhibition"}]}
{"compound": "O=C1NC(=O)/C(=C/c2cccc(C(F)(F)F)c2)S1", "note": "[SMI-4a]", "values": [{"measurement": "motility inhibition", "setting": "[2]; @48 h (Figure 1B)", "value": 71, "unit": "%"}]}
{"compound": "CCCOc1ccc(/C=C2\\SC(=O)NC2=O)cc1", "note": "[SMI-16a]", "values": [{"measurement": "motility inhibition", "setting": "[2]; @48 h (Figure 1B)", "value": 57, "unit": "%"}]}
{"compound": "N#Cc1c(-c2ccccc2)cc(-c2cc(Br)ccc2O)[nH]c1=O", "note": "[TCS-PIM1]", "values": [{"measurement": "worm motility inhibition (in words)", "setting": "[2]", "value": "excellent inhibition"}, {"measurement": "motility inhibition", "setting": "[2]; relative to DMSO controls", "value": 100, "unit": "%"}]}
{"compound": "Cc1ccc(-c2csc3ncnc(SCCC(=O)O)c23)cc1", "note": "[TTP22]", "values": [{"measurement": "worm motility inhibition (in words)", "setting": "[2]", "value": "did not show measurable inhibition of worm motility"}]}
{"compound": "CCCSc1ccc2nc(NC(=O)OC)[nH]c2c1", "note": "[albendazole]", "values": [{"measurement": "IC50", "setting": "[2]; Trichuris muris, 24 h, read-out: T. muris IC50 μM (95% CI) 24 h", "value": "> 300", "unit": "µM"}, {"measurement": "IC50", "setting": "[2]; Trichuris muris, 48 h, read-out: T. muris IC50 μM (95% CI) 48 h", "value": "> 300", "unit": "µM"}]}
{"compound": "C[C@H]1O[C@@H](O[C@H]2[C@@H](O)C[C@H](O[C@H]3[C@@H](O)C[C@H](O[C@H]4CC[C@@]5(C)[C@H](CC[C@@H]6[C@@H]5C[C@@H](O)[C@]5(C)[C@@H](C7=CC(=O)OC7)CC[C@]65O)C4)O[C@@H]3C)O[C@@H]2C)C[C@H](O)[C@@H]1O", "note": "[digoxin]", "values": [{"measurement": "Papp A→B", "setting": "[5]", "value": 0.151, "unit": "×10⁻⁶ cm/s"}, {"measurement": "Papp B→A", "setting": "[5]", "value": 3.43, "unit": "×10⁻⁶ cm/s"}, {"measurement": "efflux ratio", "setting": "[5]", "value": 22.8}, {"measurement": "recovery", "setting": "[6]; MDCK-MDR1, mean solution recovery % A to B, MDR1-MDCK II cells", "value": 77.5, "unit": "%"}, {"measurement": "recovery", "setting": "[6]; MDCK-MDR1, mean solution recovery % B to A, MDR1-MDCK II cells", "value": 92.7, "unit": "%"}, {"measurement": "Rank Papp", "setting": "[7]; MDR1-MDCK II cells", "value": "low"}]}
{"compound": "CC(C)C[C@H]1C(=O)O[C@H](Cc2ccc(N3CCOCC3)cc2)C(=O)N(C)[C@@H](CC(C)C)C(=O)O[C@H](C)C(=O)N(C)[C@@H](CC(C)C)C(=O)O[C@H](Cc2ccc(N3CCOCC3)cc2)C(=O)N(C)[C@@H](CC(C)C)C(=O)O[C@H](C)C(=O)N1C", "note": "[emodepside]", "values": [{"measurement": "IC50", "setting": "[3]; [8]", "value": 0.0033, "unit": "µM"}, {"measurement": "IC50", "setting": "[3]; [9]", "value": 0.0011, "unit": "µM"}, {"measurement": "IC50", "setting": "[2]; [10]", "value": 0.0143, "unit": "µM"}, {"measurement": "IC50", "setting": "[2]; [11]", "value": 0.0345, "unit": "µM"}]}
{"compound": "COCCc1ccc(OCC(O)CNC(C)C)cc1", "note": "(stereo not drawn) [metoprolol]", "values": [{"measurement": "Papp A→B", "setting": "[5]", "value": 25.6, "unit": "×10⁻⁶ cm/s"}, {"measurement": "recovery", "setting": "[6]; MDCK-MDR1", "value": 97.4, "unit": "%"}, {"measurement": "Rank Papp", "setting": "[7]; MDCK-MDR1", "value": "high"}]}
{"compound": "CC(C)(C)NCC(O)COc1cccc2c1CC(O)C(O)C2", "note": "(stereo not drawn) [nadolol]", "values": [{"measurement": "Papp A→B", "setting": "[5]", "value": 0.05, "unit": "×10⁻⁶ cm/s"}, {"measurement": "recovery", "setting": "[6]; MDCK-MDR1", "value": 83.1, "unit": "%"}, {"measurement": "Rank Papp", "setting": "[7]; MDCK-MDR1", "value": "low"}]}
{"compound": "ivermectin", "values": [{"measurement": "IC50", "setting": "[2]; [10]", "value": "> 300", "unit": "µM"}, {"measurement": "IC50", "setting": "[2]; [11]", "value": 89.6, "unit": "µM"}]}
